Test results: patent US20240262844A1, “PYRIDINIUM SALTS AND METHODS OF USE” (UNIVERSITY OF WYOMING, priority 2023, published 2024)
Where “and” joins values, the source holds several entries; their conditions need not be identical. Identical values can stand only once. Counter-ions that a name gives are not always drawn.

Experiments:
[1] = biological target: T1, chymotrypsinogen (25 kDa) (Bos taurus, UniProt P00766); assay: Photochemical labeling of chymotrypsinogen (LC/MS, MS-MS); assay type: biochemical, bovine; conditions: digestion/MS-MS
T1 construct: α-Chymotrypsinogen A from bovine pancreas; purchased Sigma Aldrich; host or cells: bovine pancreas
Method: (§1) General Procedure B: Photochemical Irradiation of Peptides and Proteins: To a 2 mL Pyrex LC/MS vial (Thermo model #03-391-39) were sequentially added solutions containing the desired biomolecule, glutathione (GSH), pyridinium salt, and ammonium acetate (NH4OAc). The resulting solution was diluted to a final volume of 500 μL and then sparged using nitrogen for a minimum of 30 minutes prior to irradiation. The actively sparging solution was then placed in an EvoluChem™ PhotoRedOx Box photoreactor that was equipped with a Kessil, PR160 427 nm LED Lamp and was then irradiated (100% lamp intensity) for the designated time at room temperature while maintaining active sparging. The resultant reaction mixture was then analyzed directly by LC/MS. Analysis of labeling outcomes using LC/MS was performed either by extracted ion chromatogram intensities (method A) or by integrating the area under the peaks associated with peptide content (method B). These values were totaled, and estimated percentages were assigned according to relative intensities of peaks or ion counts.
Labeling of Chymotrypsinogen with pyridinium salt 2a (Chymotrypsinogen-2a Conjugate). […] The reaction mixture was directly analyzed by LC/MS using method A and was estimated to have proceeded with 90% conversion with a 20.7:8.3:1 mono:di:tri labeled ratio and 4% glutathionylation of all unlabeled and labeled protein content. […]

thioredoxin (11.6 kDa) = biological target: T2, thioredoxin (11.6 kDa) (Escherichia coli, UniProt P0AA25); assay: Photochemical labeling of thioredoxin (LC/MS, MS-MS); assay type: biochemical
T2 construct: purchased Sigma Aldrich; host or cells: E. coli
T2 sequence (P0AA25 whole entry): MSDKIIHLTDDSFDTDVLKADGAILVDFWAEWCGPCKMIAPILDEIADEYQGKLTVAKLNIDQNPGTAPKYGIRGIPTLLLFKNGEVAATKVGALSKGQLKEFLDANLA
Method: as §1
Labeling of Thioredoxin with Pyridinium Salt 2a (Thioredoxin-2a Conjugate). […] The reaction mixture was directly analyzed by LC/MS using method A and was estimated to have proceeded with 93% conversion and a 14.5:1 mono:di labeled ratio and 3% glutathionylation of all protein content. […]

## COC(=O)N(C)[n+]1c(C)cc(-c2ccc3cc(OC)ccc3c2)cc1C [Pyridinium salt 2a, 1-((methoxycarbonyl)(methyl)amino)-4-(6-methoxynapthalen-2-yl)-2,6-dimethylpyridin-1-ium tetrafluoroborate]
[1]
  detectable locations of labeling: Trp-215 and Trp-237
Thioredoxin (11.6 kDa); 10 μM thioredoxin, 200 μM pyridinium salt, 300 μM glutathione, 20 mM NH4OAc pH 6.9, 427 nm, 60 minutes
  conversion: 93% and 87%
Thioredoxin (11.6 kDa); digestion/MS-MS
  site of tryptophan modification: Trp-31
